Reference: patent USRE43029E1, “Process for preparing a creatine heterocyclic acid salt and method of use” (Bio-Engineered Supplements & Nutrition, Inc., priority 2003, dated 2011)

Experiments:
[1] = cited from earlier work
[2] = cited from earlier work; remark: listed apart in the source
[3] = four 5 gram per day; 30 second bouts of maximal isokinetic cycling; cited from earlier work
[4] = 20 grams a day for 5 days; five of the eight subjects; cited from earlier work
[5] = in vivo; cited from earlier work
[6] = TriCreatine Orotate method of use, 4 weeks post-workout oral supplementation; assay type: in vivo, human; conditions: weight trained person, 5 grams orally post workout, end of 4 week period
Excerpt: In this example a experienced weight trained person orally consumes 5 grams of tricreatine orotate post workout for 4 weeks with beverage. Glucose or any insulin potentiating compound may added for even greater results. In this instance the tricreatine orotate is incorporated into free powder mixture of flavoring agents and D-glucose, which is then combined with water. Once in the plasma tricreatine orotate then exerts a synergistic lean tissue promoting effect due to the anabolic actions of creatine and orotic acid. The creatine enhances phophocreatine resynthesis and attracts water to intercellular component of the muscle cell, which in turn activates protein synthesis while the orotic acid promotes uridine phosphates and glycogen synthesis. The previously mentioned physiological functions lead to increases in lean body mass, strength, endurance, recovery and loss of fat tissue. At the end of the 4 week period the individual reported a 6 pound weight gain, a 20 pound increase in […] 1 repetition maximum bench press, and a 5 repetition increase in […] initial 70 percent maximum bench press. These increases contribute to the regulation of athletic function and thus lead to enhanced physical performance.

In the case of `CN(CC(=O)O)C(=N)N.O` [creatine monohydrate], the “total creatine content of the quadriceps” value ([1]; 5 grams four to six times a day for 2 or more days) is listed as “significant increase”, the creatine uptake ([1]; first two days of supplementation, six 5 gram doses) is listed as 32% and the “creatine taken up measured as phosphocreatine (PCr)” value ([1]; in vivo) is listed as at least 20%. For the same compound, the “rise in plasma creatine concentration” value ([2]; 1 gram dose) was “only a modest rise” and the “time of mean peak plasma creatine” value ([2]; 5 gram dose) was 1 h.

In the case of `CN(CC(=O)O)C(=N)N` [creatine], the “peak power output and mean power output” value [3] is listed as “significantly increased” and the “muscle total creatine concentration and phosphocreatine resynthesis” value [4] is listed as “substantially increased”.

For `O=C(O)c1cc(=O)[nH]c(=O)[nH]1` [orotic acid, 1,2,3,6-Tetrahydro-2,6-dioxo-4-pyrimidecarboxylic acid], the “growth and functional maturation of animals” value [5] is listed as “significant acceleration”.

For Tricreatine orotate, the “increase in 1 repetition maximum bench press” value [6] was 20 pound, the “increase in initial 70 percent maximum bench press” value [6] was 5 repetition and the weight gain [6] was 6 pound.
